Source: patent US20200291082A1, “PREVENTION AND TREATMENT OF GRAFT-VERSUS-HOST-DISEASE WITH DEFENSINS” (priority 2017, published 2020)
Entries after “also recorded” stand apart in the source; their conditions may differ. No end group written: not given here.

Assays:
[1] = test system: house dust mite driven model of allergic asthma; experiment: prophylactic intranasal versus oral hBD2 in murine house dust mite driven model of allergic asthma (Example 9); assay type: in vivo, BALB/c mice
Method: To determine and assess the efficacy of prophylactic treatment with intranasal (IN) versus oral defensins in a murine house dust mite driven model of allergic asthma.
Treatment regime: Female 7-10 weeks old BALB/c mice were randomly allocated into 5 study groups one day prior to study start and subcutaneously (SC) sensitized to house dust mite (100 μg HDM in 200 μL saline plus Freund's complete adjuvant in 0.9% saline). The mice were treated with hBD2 orally and intranasally respectively at a dose of 1.2 mg/kg/day (0.4 mg/kg TID) starting on day 12 in the morning and continued TID at approximately 6 hours intervals. The last dose was administered on day 14 one hour prior to challenge. The total number of doses were […] hBD2. Mice were then intranasally (IN) challenged with HDM on day 14 (HDM 25 μg in 50 μL of saline) (FIG. 4).
(§1) Airway inflammation: At 48 hours post challenge, bronchoalveolar lavage was performed washing the lungs with 3 volumes of cold PBS (0.4; 0.3 and 0.3 mL, total 1 mL). Total and differential leucocyte cell counts were determined on an automated haematological analyser Sysmex XT-2000iV.
Lung function: Starting 48 hours after HDM challenge, measurements of lung resistance and lung compliance were carried out after methacholine challenge (3.125 MCH1; 6.25 MCH2; 12.5 MCH3 and 25 mg/mL MCH4) by anaesthetized, cannulated mice using DSI's Buxco Finepoint RC system. Data are represented as airway resistance at […] methacholine and as dose responsive curves.
Lung sampling for cytokine analysis: After completion of every BAL, lungs were removed from the thorax, snap frozen in liquid nitrogen and stored frozen at −80 degrees Celsius until analysis of cytokine concentration of TNF-α, IL-4, IL-5, IL-6, IL-9, IL-13 and IL-33 in lung homogenate by ELISA.

[2] = test system: Trinitrobenzene Sulfonic Acid induced colitis; experiment: prophylactic murine 8-day Trinitrobenzene Sulfonic Acid induced colitis model (Example 3); assay type: in vivo, BALB/cByJ mice
Method: Anti-inflammatory effect of s.c. administration of hBD2 versus s.c. prednisolone in a prophylactic murine, 8-day Trinitrobenzene Sulfonic Acid induced colitis model.
105 male BALB/cByJ mice housed in groups of five per cage were allocated to 7 different treatment groups. Colitis was induced by intracolonic administration of trinitrobenzene sulfonic acid on day 0 under light anaesthesia resulting in significant inflammation and injury of the colonic tissue. The animals were treated with hBD2 at four different dosing levels once daily (1 mg/kg, 0.3 mg/kg, 0.1 mg/kg, and 0.03 mg/kg) or Prednisolone 10 mg/kg once daily dosed subcutaneously under the dorsal skin or PBS as vehicle for 7 days.
A disease activity index (DAI) scoring system was applied for clinical assessment (FIG. 7). The animals were sacrificed on day 10 and colon removed for histological assessment employing a histological scoring system (FIG. 8).

[3] = test system: CD4+CD25+ Tcell transfer induced colitis; experiment: therapeutic murine 14 weeks CD4+CD25+ Tcell transfer induced colitis model (Example 6); assay type: in vivo, SCID mice; conditions: hBD2 1 mg/kg s.c. OD, Dexamethasone 0.3 mg/kg i.p. OD, Enbrel 100 μg/mouse s.c. twice weekly
Excerpt: Efficacy of s.c. administration of hBD2 versus s.c. anti TNF-α (Enbrel) and intraperitoneal dexamethasone in a therapeutic, murine, 14 weeks, CD4+CD25+ Tcell transfer induced colitis model.
70 female BALB/c mice housed in groups of five per cage were allocated to 7 different treatment groups. Colitis was induced in SCID mice by transplantation of CD4+CD25+ Tcells from BALB/c mice. Lymphocytes isolated from spleen and lymph nodes from BALB/c mice were subjected to negative selection of CD4+ Tcells. Afterwards, CD4+CD25+ cells were positively isolated by binding to the beads from the CD4+ Tcell suspensions and the CD4+CD25− were collected from the supernatant. The animals were treated with hBD2, 0.1 mg/kg s.c. OD; 1 mg/kg s.c. OD or 3 mg/kg s.c. OD or with mouse anti TNFα 100 μg/mouse s.c. twice weekly or with dexamethasone 0.3 mg/kg intraperitoneally OD or PBS s.c. as vehicle from day 7 and 86 consecutive days.
Clinical assessment was based on body weight loss, stool consistency and presence of blood per rectum. The animals were sacrificed on day 95 and colon removed for assessment of weight and myeloperoxidase activity.

[4] = test system: house dust mite model of allergic asthma; experiment: therapeutic intranasal versus oral hBD2 in murine house dust mite model of allergic asthma (Example 10); assay type: in vivo, BALB/c mice
Method: To determine and assess the efficacy of IN versus oral therapeutic intervention with defensins in a murine house dust mite model of allergic asthma.
Treatment regime: Female 7-10 weeks old BALB/c mice were randomly allocated into 7 study groups one day prior to study start and subcutaneously (SC) sensitized to house dust mite (100 μg HDM in 200 μL saline plus Freund's complete adjuvant in 0.9% saline). Mice were then intranasally (IN) challenged with HDM on day 14 (HDM 25 μg in 50 μL of saline). Dexamethasone was administered orally (1 mg/kg BID; 50 μL phosphate buffered saline (PBS)) on day 14. hBD2 was administered IN or orally (1.7 mg/kg TID IN; 0.4 mg/kg TID IN; 0.4 mg/kg TID orally, 50 μL phosphate buffered saline) on day 14. The initial dose was administered 60 minutes prior to challenge, and the subsequent doses approximately 6 hours apart (FIG. 5).
as §1
Data are represented as airway resistance at […] methacholine and as dose responsive curves.
Lung sampling for cytokine analysis: After completion of every BAL, lungs were removed from the thorax, snap frozen in liquid nitrogen and stored frozen at −80 degrees Celsius until analysis of cytokine concentration of IL-1β, TNF-α, IL-6, IL-10 and IFNγ by ELISA.

[5] = hBD2 both oral and intranasal TID, day 12 to day 14 (total 2.0 mg/kg in 8 administrations), versus HDM challenged vehicle
[6] = intranasally administered, not statistically significantly different from the control
[7] = dexamethasone 1 mg/kg BID oral, hBD2 both IN doses (0.4 mg/kg/day TID and 1.7 mg/kg/day TID)
[8] = hBD2 both oral and intranasal TID on day 14, versus HDM challenged vehicle

Substance: human beta defensin 2 (GIGDPVTCLKSGAICHPVFCPRRYKQIGTCGLPGTKCCKKP; not fully specified (bridges); ends and bridges not checked; listed as Homo sapiens) [hBD2]
- airway resistance [1, 5]: effectively inhibited the increase of airway resistance
- pulmonary compliance [1, 5]: effectively inhibited
- IL-4 in lung tissue homogenates [1, 6]: trend towards lowering
- IL-5 in lung tissue homogenates [1, 6]: trend towards lowering
- IL-6 in lung tissue homogenates [1, 6]: trend towards lowering
- IL-9 in lung tissue homogenates [1, 6]: trend towards lowering
- IL-13 in lung tissue homogenates [1, 6]: trend towards lowering
- TNF-α in lung tissue homogenates [1, 6]: trend towards lowering
- IL-4 concentration in lung tissue homogenates ([1]; oral administration): complete normalization of cytokine concentrations
- IL-6 concentration in lung tissue homogenates ([1]; oral administration): complete normalization of cytokine concentrations
- IL-9 concentration in lung tissue homogenates ([1]; oral administration): complete normalization of cytokine concentrations
- IL-13 concentration in lung tissue homogenates ([1]; oral administration): complete normalization of cytokine concentrations
- L-5 (31c) concentration in lung tissue homogenates ([1]; oral administration): complete normalization of cytokine concentrations
- TNF-α concentration in lung tissue homogenates ([1]; oral administration): complete normalization of cytokine concentrations
- neutrophil counts in BALF ([1]; oral application): significantly inhibited neutrophil counts
- histological score ([2]; FIG. 13, 0.03 and 0.1 mg/kg hBD2 (Group E and F), on par with prednisolone 10 mg/kg): statistical significant effect
- histological score ([2]; Prednisolone 10 mg/kg s.c. once daily, hBD2 at 0.1, 0.3 and 1 mg/kg s.c. once daily): highly statistically significant clinical effect on histological score
- body weight ([2]; hBD2 0.03 and 0.1 mg/kg OD s.c.): highly statistically significant increase in body weight
- myeloperoxidase activity ([3]; colon, day 95): statistically significant and similar effect; also recorded: on par with 100 μg/mouse anti TNF-α s.c. twice weekly (Enbrel) and 0.3 mg/kg dexamethasone intraperitoneally OD
- clinical score (body weight loss, stool consistency, presence of blood per rectum) [3]: statistically significant and similar effect on clinical score; also recorded: on par with 100 μg/mouse anti TNF-α s.c. twice weekly (Enbrel) and 0.3 mg/kg dexamethasone intraperitoneally OD
- colon weight ([3]; day 95): statistically significant and similar effect on colon weight; also recorded: on par with 100 μg/mouse anti TNF-α s.c. twice weekly (Enbrel) and 0.3 mg/kg dexamethasone intraperitoneally OD
- eosinophil counts in BALF [4, 7]: trend towards lowering of eosinophils
- macrophage counts in BALF [4, 7]: significantly inhibited
- neutrophil counts in BALF [4, 7]: significantly inhibited
- total cell counts in BALF [4, 7]: significantly inhibited
- IL-6 level in lung tissue homogenates ([4]; hBD2, both dosing routes): significant effects
- IL-10 level in lung tissue homogenates ([4]; hBD2, both dosing routes): significant effects
- airway resistance [4, 8]: effectively inhibited increase of airway resistance
- pulmonary compliance [4, 8]: effectively inhibited
- TNF-α level in lung tissue homogenates ([4]; intranasally administered hBD2): differed from the control but not significantly
- TNF-α level in lung tissue homogenates ([4]; perorally administered hBD2): significantly reduced TNF-α
